Consider nine molecules from ChEMBL document CHEMBL5055619, “Tetrahydrofuran-Based Transient Receptor Potential Ankyrin 1 (TRPA1) Antagonists: Ligand-Based Discovery, Activity in a Rodent Asthma Model, and Mechanism-of-Action via Cryogenic Electron Microscopy” (J Med Chem, 2021).

The structures appear in SMILES notation. In brackets after ≈: the same amount, converted by molar mass.

Data set [1] can be described thus: Lipophilicity, logD of compound. Format: physicochemical. Particulars: octanol/water.
Data set [2] can be described thus: Antagonist activity at human TRPA1 expressed in CHO cells assessed as cinnamaldehyde-induced calcium flux measured after 90 mins by FLIPR assay. Format: cell-based. The note with it: 1.5 h.
Data set [3] in a line: Metabolic stability in rat liver microsomes assessed as clearance by LC/MS-MS analysis. Format: ADME, Microsome.
The nature of data set [4]: Metabolic stability in human liver microsomes assessed as clearance by LC/MS-MS analysis. Format: ADME, Microsome.
Data set [5] can be described thus: Antagonist activity at rat TRPA1 expressed in CHO cells assessed as cinnamaldehyde-induced calcium flux measured after 90 mins by FLIPR assay. The data set is classed as cell-based. The note with it: 1.5 h.
Data set [6] in a line: Kinetic solubility of the compound. Format: physicochemical. Particulars: for solubility kinetic: read-out: Kinetic_solubility.
The nature of data set [7]: Apparent permeability across apical to basolateral side in MDCK cells. The data set is classed as ADME, cell-based, Canis lupus familiaris. Particulars: dog, read-out: permeability.
The target of data set [8] is Transient receptor potential cation channel subfamily A member 1 (Rattus norvegicus) (UniProt Q6RI86). The data set can be described thus: In vivo antagonist activity at TRPA1 in AITC-induced rat pain model assessed as nocifensive behaviour at 2.97 ratio of free plasma concentration to IC50 for rat […]. The note with it: concentration not given here. The data set is classed as functional, organism-based.

Data set [9] is described as follows: Protein binding in human plasma. Format: ADME, cell-free. The note with it: read-out: PPB (converted).
The nature of data set [10]: Protein binding in rat plasma. Format: ADME, cell-free. Particulars: read-out: PPB (converted).
Data set [11] in a line: Half life in rat at 1 mg/kg. Format: ADME, organism-based. The note with it: in vivo.
Data set [12] in a line: Oral bioavailability in rat at 1 mg/kg. Particulars: in vivo. Format: ADME, organism-based.
The species named for a further data set is Rattus norvegicus. Nature of the data set: Antinociceptive activity against AITC-induced rat pain model assessed as nocifensive behaviour by measuring unbound concentration. Format: functional, organism-based.
A short description of data set [13]: Unbound Volume of distribution at steady state in rat at 1 mg/kg. The data set is classed as ADME, organism-based. Particulars: in vivo.
Data set [14] deals with Transient receptor potential cation channel subfamily A member 1 (Rattus norvegicus) (UniProt Q6RI86). Nature of the data set: In vivo antagonist activity at TRPA1 in AITC-induced rat pain model assessed as nocifensive behaviour at 4.45 ratio of free plasma concentration to IC50 for rat […]. The note with it: concentration not given here. The data set is classed as functional, organism-based.

The nature of data set [15]: Clearance in rat at 1 mg/kg. Particulars: in vivo. Format: ADME, organism-based.
Data set [16] addresses Transient receptor potential cation channel subfamily A member 1 (Rattus norvegicus) (UniProt Q6RI86). Nature of the data set: In vivo antagonist activity at TRPA1 in AITC-induced rat pain model assessed as nocifensive behaviour at 1.21 ratio of free plasma concentration to IC50 for rat […]. Format: functional, organism-based. Particulars: concentration not given here.

Data set [17] can be described thus: Volume of distribution at steady stare in rat at 1 mg/kg. Format: ADME, organism-based. The note with it: in vivo, read-out: Vdss.
The target of data set [18] is Transient receptor potential cation channel subfamily A member 1 (Rattus norvegicus) (UniProt Q6RI86). Nature of the data set: In vivo antagonist activity at TRPA1 in AITC-induced rat pain model assessed as nocifensive behaviour at 0.36 ratio of free plasma concentration to IC50 for rat […]. The data set is classed as functional, organism-based. Particulars: concentration not given here.

The nature of data set [19]: Metabolic stability in rat hepatocytes assessed as clearance. The data set is classed as ADME, cell-based, Hepatocyte.
Data set [20] addresses Transient receptor potential cation channel subfamily A member 1 (Rattus norvegicus) (UniProt Q6RI86). The data set can be described thus: In vivo antagonist activity at TRPA1 in AITC-induced rat pain model assessed as nocifensive behaviour at 3.17 ratio of free plasma concentration to IC50 for rat […]. Format: functional, organism-based. The note with it: concentration not given here.

Data set [21] has the same target. Nature of the data set: In vivo antagonist activity at TRPA1 in AITC-induced rat pain model assessed as nocifensive behaviour at 0.53 ratio of free plasma concentration to IC50 for rat […]. Particulars: concentration not given here. Format: functional, organism-based.
For data set [22] the target is unchanged. Nature of the data set: In vivo antagonist activity at TRPA1 in AITC-induced rat pain model assessed as nocifensive behaviour at 0.10 ratio of free plasma concentration to IC50 for rat […]. Format: functional, organism-based. Particulars: concentration not given here.
The target is the same in data set [23]. The data set can be described thus: In vivo antagonist activity at TRPA1 in AITC-induced rat pain model assessed as nocifensive behaviour at 0.17 ratio of free plasma concentration to IC50 for rat […]. Format: functional, organism-based. Particulars: concentration not given here.

Sequence of Transient receptor potential cation channel subfamily A member 1 (Rattus norvegicus) (Q6RI86 whole entry): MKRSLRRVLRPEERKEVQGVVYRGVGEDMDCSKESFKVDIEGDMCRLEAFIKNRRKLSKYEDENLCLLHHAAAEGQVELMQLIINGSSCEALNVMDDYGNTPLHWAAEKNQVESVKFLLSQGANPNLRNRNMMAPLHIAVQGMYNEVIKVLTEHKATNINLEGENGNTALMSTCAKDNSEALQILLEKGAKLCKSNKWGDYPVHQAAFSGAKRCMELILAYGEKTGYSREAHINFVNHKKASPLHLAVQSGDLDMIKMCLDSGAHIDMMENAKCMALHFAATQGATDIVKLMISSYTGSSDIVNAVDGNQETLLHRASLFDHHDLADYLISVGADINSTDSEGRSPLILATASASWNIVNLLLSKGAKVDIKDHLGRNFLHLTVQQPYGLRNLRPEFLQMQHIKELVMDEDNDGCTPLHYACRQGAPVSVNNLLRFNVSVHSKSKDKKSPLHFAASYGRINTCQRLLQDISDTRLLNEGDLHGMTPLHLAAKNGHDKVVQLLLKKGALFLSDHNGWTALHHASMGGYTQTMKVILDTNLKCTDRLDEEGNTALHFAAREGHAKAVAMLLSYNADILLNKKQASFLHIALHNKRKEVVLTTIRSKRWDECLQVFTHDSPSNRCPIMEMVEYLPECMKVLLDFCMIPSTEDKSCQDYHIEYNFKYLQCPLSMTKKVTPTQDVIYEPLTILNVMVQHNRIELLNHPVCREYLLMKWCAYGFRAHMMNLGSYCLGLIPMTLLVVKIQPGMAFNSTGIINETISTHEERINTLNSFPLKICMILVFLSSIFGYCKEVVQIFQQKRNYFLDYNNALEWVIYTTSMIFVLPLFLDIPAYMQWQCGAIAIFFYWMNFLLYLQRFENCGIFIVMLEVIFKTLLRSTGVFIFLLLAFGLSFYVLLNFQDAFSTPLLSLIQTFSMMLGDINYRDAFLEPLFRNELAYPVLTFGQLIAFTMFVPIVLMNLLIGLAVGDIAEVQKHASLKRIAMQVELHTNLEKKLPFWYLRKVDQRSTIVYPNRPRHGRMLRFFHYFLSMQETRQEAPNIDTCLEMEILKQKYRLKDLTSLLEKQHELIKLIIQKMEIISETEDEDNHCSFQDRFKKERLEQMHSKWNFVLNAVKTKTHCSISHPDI

Molecule `Cn1cnc2ncn(Cc3nc(CCc4ccc(Cl)cc4)no3)c(=O)c21` showed a logD in data set [1] of 1.9. The IC50 in data set [2] came out at 100 nM; in data set [5] it was 80 nM. Further, the CLhep predicted in [3] is 35 mL/min/kg; in data set [4], 12 mL/min/kg.

Turning to `Cn1cnc2ncn(Cc3nc([C@@H]4[C@@H]5Cc6c(Cl)cccc6[C@@H]54)no3)c(=O)c21`, in data set [1], the logD turned out to be 2.6. Moreover, the IC50 in data set [2] came out at 32 nM. Also, the solubility kinetic in [6] was below 1 µM.

The molecule `Cn1cnc2ncn(Cc3nc([C@H]4[C@@H]5CN(c6cccc(Cl)c6)C[C@@H]54)no3)c(=O)c21` returned a logD in data set [1] of 2.9. Moreover, the Papp A→B in data set [7] came out at 15.5 ×10⁻⁶ cm/s. In addition, the inhibition in data set [8] was 99%; in data set [14], 99%; in data set [16], 64%; in data set [18] it was 12%. In addition, the results for the fraction unbound in data set [9] and in data set [10] were 0.011 and 0.018, respectively. In [11], this molecule showed a half-life of 6.4 h. This molecule had a bioavailability in data set [12] of 20%. The EC50 in the data set filed under Rattus norvegicus was found to be 7.9 nM. Further, the IC50 in data set [2] was determined as 2.9 nM; in data set [5], 7.9 nM. The Vduss in data set [13] is 128 L/kg. For the same molecule, the clearance in data set [15] amounted to 4.5 mL/min/kg. In addition, in data set [6], the Kinetic_solubility was found to be 97 µM. For the same molecule, in [17], the Vd turned out to be 2.3 L/kg. Also, in data set [19], the CLhep predicted was 35 mL/min/kg.

Regarding `Cn1cnc2ncn(Cc3nn([C@@H]4CC[C@@H](Oc5cccc(F)c5)C4)c(=O)o3)c(=O)c21`, the logD in [1] amounted to 1.8. For the same molecule, the half-maximal inhibitory concentration (IC50) in data set [2] worked out at 410 nM. Besides, the CLhep predicted in [3] is 24 mL/min/kg; in data set [4], 8 mL/min/kg.

On to `Cn1cnc2ncn(Cc3nn(CCCOc4cccc(Cl)c4)c(=O)o3)c(=O)c21`, for which the logD in data set [1] turned out to be 1.3. Besides, in data set [2], the IC50 came out at 14 nM. For the same molecule, the CLhep predicted in [3] is 44 mL/min/kg; in [4], 16 mL/min/kg.

Take `Cn1cnc2ncn(Cc3nc([C@@H]4CO[C@@H](c5ccc(F)cc5)C4)no3)c(=O)c21`: the IC50 in data set [2] was found to be 7.6 nM. For the same molecule, the CLhep predicted is 9 mL/min/kg in [3] and 4.3 mL/min/kg in [4].

Molecule `Cn1cnc2ncn(Cc3nc([C@H]4[C@@H]5C[C@H](c6ccccc6)C[C@@H]54)no3)c(=O)c21` yielded a logD in [1] of 2.7. Besides, the IC50 in data set [2] was determined as 1900 nM. Moreover, the solubility kinetic in [6] turned out to be 54 µM (≈ 21 µg/mL).

In turn, `Cn1cnc2ncn(Cc3nn([C@@H]4CC[C@@H](c5ccc(Cl)cc5)C4)c(=O)o3)c(=O)c21` registered a logD in [1] of 2.4. Further, the IC50 in [2] came to 9.6 nM. Further, the CLhep predicted in data set [3] is 36 mL/min/kg; in data set [4], 12 mL/min/kg.

`Cc1cnn2ncn(Cc3nc([C@H]4[C@@H]5CN(c6cccc(Cl)c6)C[C@@H]54)no3)c(=O)c12` returned a logD in [1] of 3. For the same molecule, the Papp A→B in [7] came to 20.7 ×10⁻⁶ cm/s. The inhibition is 87% in data set [20], 63% in data set [21], 30% in data set [22] and 36% in data set [23]. The fraction unbound is 0.009 in data set [9] and 0.02 in [10]. The molecule further showed a half-life in data set [11] of 2.5 h. The bioavailability in data set [12] was found to be 32%. For the same molecule, the EC50 in the data set listed under Rattus norvegicus amounted to 6.2 nM. The IC50 in data set [2] came out at 8.1 nM; in [5] it was 8.2 nM. Moreover, the Vduss in [13] came out at 140 L/kg. In [15], the clearance came to 15 mL/min/kg. Moreover, the solubility kinetic in data set [6] is 13 µM (≈ 5.51 µg/mL). Also, the CLhep predicted was 32 mL/min/kg in data set [3], 15 mL/min/kg in [4] and 43 mL/min/kg in [19]. In addition, in [17], the Vd is 2.8 L/kg.
